Laboratory results reported in publication PMC9263537 (Pharmacology Research & Perspectives, 2022).
“And” between values parts separate entries of the source, which are not always exact repeats. Equal values may be shown once. Read-outs that look alike come from different tables or passages of the source. One block for each compound: values may come before it.

Experiments:
[1] = mean population model parameter; cited from earlier work
[2] = immediate release tablets, cited from earlier work
[3] = paracetamol alone vs with semaglutide; cited from earlier work
[4] = final model with semaglutide covariate
[5] = model without semaglutide covariate
[6] = semaglutide 1.0 mg s.c. once weekly at steady state
[7] = young adults, body weight 62–84 kg

T50 estimate (atorvastatin with semaglutide): 83 min
T50 (atorvastatin with semaglutide (Figure 8)): 1.38 h
T50 estimate (atorvastatin without semaglutide): 16 min
ka (Placebo), Bootstrap mean [95%CI] (bootstrap 1000 replicates): 6.56 [3.29–12.1] h^−1
ktr (Placebo), Bootstrap mean [95%CI] (bootstrap 1000 replicates): 10.4 [4.48–44.0] h^−1
Θkacovariate, Bootstrap mean [95%CI] (bootstrap 1000 replicates): 0.821 [0.649–0.925]
Θktrcovariate, Bootstrap mean [95%CI] (bootstrap 1000 replicates): 0.820 [0.629–0.972]
ω^2 Ka, Bootstrap mean [95%CI] (bootstrap 1000 replicates): 2.21 [1.41–3.32]
ω^2 Ktr, Bootstrap mean [95%CI] (bootstrap 1000 replicates): 1.82 [0.390–3.17]
Between subject variability ω^2 Ka, Estimates [4]: 2.03
Between subject variability ω^2 Ktr, Estimates [4]: 1.82
Θkacovariate, Estimates (fractional reduction of ka with semaglutide (dKadplacebo)): 0.829
Θktrcovariate, Estimates (fractional reduction of ktr with semaglutide (dKtrdplacebo)): 0.791
BSV variance (Omega^2) for ka before semaglutide covariate [5]: 3.29
BSV variance (Omega^2) for ktr before semaglutide covariate [5]: 3.19
ka when co-administered with semaglutide [6]: 0.986 h⁻¹
ktr when co-administered with semaglutide [6]: 1.52 h⁻¹
ktr (Placebo), Estimates (transit compartment rate constant, without semaglutide): 7.3 h⁻¹ and 7.28 h⁻¹
decrease of ka when co-administered with semaglutide (with vs without semaglutide): 83%
decrease of ktr when co-administered with semaglutide (with vs without semaglutide): 79%
SMILES: CC(C)c1c(C(=O)Nc2ccccc2)c(-c2ccccc2)c(-c2ccc(F)cc2)n1CC[C@@H](O)C[C@@H](O)CC(=O)O [atorvastatin]
ka [1]: 3.5 h^‐1

SMILES: CC(=O)Nc1ccc(O)cc1 [paracetamol]
ka [2]: 4.33 h⁻¹
V1/F [2, 7]: 30.7 L
V2/F [2, 7]: 19.9 L
alteration in paracetamol AUC0‐5h [3]: no significant alteration
